Results published in patent publication US12344603B2 (Genentech, Inc., priority 2020, dated 2025).
Where a name gives a salt, the structure may show the parent alone.

Target: IRE1α (Homo sapiens (Human), UniProt O75460, D688N)
Experiment: IRE1α TR-FRET competition binding assay (IRE1α HTRF)
Settings: TR-FRET competition binding to kinase domain of IRE1α
How it was run: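 Competition of compounds against an Alexa fluor 647 ATP-site probe (2 nM final) for the His-tagged kinase domain (0.25 nM final), detected via 2 nM Eu anti-His antibody by TR-FRET, 665 and 615 nm emission. Protein–antibody premix 1 h, 4° C; reaction 1 h, room temperature, pH 7.5 HEPES buffer.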

IRE1α, sequence (O75460 547-977 D688N): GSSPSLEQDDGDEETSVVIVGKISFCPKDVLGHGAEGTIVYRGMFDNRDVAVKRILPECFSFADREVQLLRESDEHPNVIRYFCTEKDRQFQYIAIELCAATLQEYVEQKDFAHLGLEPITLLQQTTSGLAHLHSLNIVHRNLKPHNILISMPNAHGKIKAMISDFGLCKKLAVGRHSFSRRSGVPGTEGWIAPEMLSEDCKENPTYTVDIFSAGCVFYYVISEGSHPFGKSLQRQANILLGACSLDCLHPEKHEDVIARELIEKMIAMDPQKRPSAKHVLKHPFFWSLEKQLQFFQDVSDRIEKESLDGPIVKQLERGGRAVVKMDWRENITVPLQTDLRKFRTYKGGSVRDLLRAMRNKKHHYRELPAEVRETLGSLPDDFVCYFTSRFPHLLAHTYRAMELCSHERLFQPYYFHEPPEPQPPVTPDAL

Row | IC50 [nM] | Compound
1 | 0.15 | CC(C)n1c(=O)c(-c2ccc(NS(=O)(=O)CC3CCCCC3)c(F)c2)cc2cnc(N[C@H]3CC[C@H](N(C)C)CC3)nc21 [Compound 115, 1-Cyclohexyl-N-(4-(2-(((1r,4r)-4-(dimethylamino)cyclohexyl)amino)-8-isopropyl-7-oxo-7,8-dihydropyrido[2,3-d]pyrimidin-6-yl)-2-fluorophenyl)methanesulfonamide]
2 | 0.25 | CC(C)n1c(=O)c(-c2cc(F)c(NS(=O)(=O)Cc3ccc(Cl)cc3)c(F)c2)cc2cnc(N[C@H]3CC[C@H](N(C)C)CC3)nc21 [Compound 116, 1-(4-Chlorophenyl)-N-(4-(2-(((1r,4r)-4-(dimethylamino)cyclohexyl)amino)-8-isopropyl-7-oxo-7,8-dihydropyrido[2,3-d]pyrimidin-6-yl)-2,6-difluorophenyl)methanesulfonamide]
3 | 0.18 | CC(C)n1c(=O)c(-c2cc(F)c(NS(=O)(=O)Cc3ccccc3)c(F)c2)cc2cnc(N[C@H]3CC[C@H](N(C)C)CC3)nc21 [Compound 117, N-(4-(2-(((1r,4r)-4-(Dimethylamino)cyclohexyl)amino)-8-isopropyl-7-oxo-7,8-dihydropyrido[2,3-d]pyrimidin-6-yl)-2,6-difluorophenyl)-1-phenylmethanesulfonamide]
4 | 1.7 | Cc1ccc(CS(=O)(=O)Nc2c(F)cc(-c3cc4cnc(N[C@H]5CC[C@H](N(C)C)CC5)nc4n(C(C)C)c3=O)cc2F)cc1 [Compound 120, N-(4-(2-(((1r,4r)-4-(Dimethylamino)cyclohexyl)amino)-8-isopropyl-7-oxo-7,8-dihydropyrido[2,3-d]pyrimidin-6-yl)-2,6-difluorophenyl)-1-(p-tolyl)methanesulfonamide]
5 | 0.12 | COCCN(C)[C@H]1CC[C@H](Nc2ncc3cc(-c4cc(F)c(NS(=O)(=O)Cc5ccc(F)cc5)c(F)c4)c(=O)n(C(C)C)c3n2)CC1 [Compound 122, N-(2,6-Difluoro-4-(8-isopropyl-2-(((1r,4r)-4-((2-methoxyethyl)(methyl)amino)cyclohexyl)amino)-7-oxo-7,8-dihydropyrido[2,3-d]pyrimidin-6-yl)phenyl)-1-(4-fluorophenyl)methanesulfonamide]
6 | 0.05 | COCCN(C)[C@H]1CC[C@H](Nc2ncc3cc(-c4ccc(NS(=O)(=O)Cc5ccc(F)cc5)c(F)c4)c(=O)n(C(C)C)c3n2)CC1 [Compound 123, N-(2-Fluoro-4-(8-isopropyl-2-(((1r,4r)-4-((2-methoxyethyl)(methyl)amino)cyclohexyl)amino)-7-oxo-7,8-dihydropyrido[2,3-d]pyrimidin-6-yl)phenyl)-1-(4-fluorophenyl)methanesulfonamide]
7 | 0.12 | COCCN(C)[C@H]1CC[C@H](Nc2ncc3cc(-c4ccc(NS(=O)(=O)Cc5ccccc5)c(F)c4)c(=O)n(C(C)C)c3n2)CC1 [Compound 124, N-(2-Fluoro-4-(8-isopropyl-2-(((1r,4r)-4-((2-methoxyethyl)(methyl)amino)cyclohexyl)amino)-7-oxo-7,8-dihydropyrido[2,3-d]pyrimidin-6-yl)phenyl)-1-phenylmethanesulfonamide hydrochloride]
8 | 0.19 | CC(C)n1c(=O)c(-c2cc(F)c(NS(=O)(=O)Cc3ccc(C(F)F)cc3)c(F)c2)cc2cnc(N[C@H]3CC[C@H](N(C)C)CC3)nc21 [Compound 125, 1-(4-(Difluoromethyl)phenyl)-N-(4-(2-(((1r,4r)-4-(dimethylamino)cyclohexyl)amino)-8-isopropyl-7-oxo-7,8-dihydropyrido[2,3-d]pyrimidin-6-yl)-2,6-difluorophenyl)methanesulfonamide]
9 | 0.24 | COCCN(C)[C@H]1CC[C@H](Nc2ncc3cc(-c4ccc(NS(=O)(=O)CCC(F)(F)F)nc4)c(=O)n(C(C)C)c3n2)CC1 [Compound 126, 3,3,3-Trifluoro-N-(5-(8-isopropyl-2-(((1r,4r)-4-((2-methoxyethyl)(methyl)amino)cyclohexyl)amino)-7-oxo-7,8-dihydropyrido[2,3-d]pyrimidin-6-yl)pyridin-2-yl)propane-1-sulfonamide]
10 | 0.11 | CC(C)n1c(=O)c(-c2cc(F)c(NS(=O)(=O)Cc3ccc(F)cc3)cc2F)cc2cnc(N[C@H]3CC[C@H](N(C)C)CC3)nc21 [Compound 127, N-(4-(2-(((1r,4r)-4-(Dimethylamino)cyclohexyl)amino)-8-isopropyl-7-oxo-7,8-dihydropyrido[2,3-d]pyrimidin-6-yl)-2,5-difluorophenyl)-1-(4-fluorophenyl)methanesulfonamide]
11 | 0.15 | CC(C)n1c(=O)c(-c2c(F)cc(NS(=O)(=O)Cc3ccc(F)cc3)c(F)c2F)cc2cnc(N[C@H]3CC[C@H](N(C)C)CC3)nc21 [Compound 128, N-(4-(2-(((1r,4r)-4-(Dimethylamino)cyclohexyl)amino)-8-isopropyl-7-oxo-7,8-dihydropyrido[2,3-d]pyrimidin-6-yl)-2,3,5-trifluorophenyl)-1-(4-fluorophenyl)methanesulfonamide]
12 | 0.08 | CC(C)n1c(=O)c(-c2c(F)cc(NS(=O)(=O)Cc3ccc(F)cc3)cc2F)cc2cnc(N[C@H]3CC[C@H](N(C)C)CC3)nc21 [Compound 129, N-(4-(2-(((1r,4r)-4-(Dimethylamino)cyclohexyl)amino)-8-isopropyl-7-oxo-7,8-dihydropyrido[2,3-d]pyrimidin-6-yl)-3,5-difluorophenyl)-1-(4-fluorophenyl)methanesulfonamide hydrochloride]
13 | 0.38 | CC(C)n1c(=O)c(-c2c(F)cc(NS(=O)(=O)Cc3ccc(F)cc3)cc2F)cc2cnc(N[C@@H]3CNC[C@@H](F)C3)nc21 [Compound 130, N-(3,5-Difluoro-4-(2-(((3S,5S)-5-fluoropiperidin-3-yl)amino)-8-isopropyl-7-oxo-7,8-dihydropyrido[2,3-d]pyrimidin-6-yl)phenyl)-1-(4-fluorophenyl)methanesulfonamide hydrochloride]
14 | 0.21 | COc1nc(NS(=O)(=O)c2ccccc2Cl)ccc1-c1cc2cnc(N[C@H]3CC[C@H](N(C)C)CC3)nc2n(C(C)C)c1=O [Compound 131, 2-Chloro-N-(5-(2-(((1r,4r)-4-(dimethylamino)cyclohexyl)amino)-8-isopropyl-7-oxo-7,8-dihydropyrido[2,3-d]pyrimidin-6-yl)-6-methoxypyridin-2-yl)benzenesulfonamide]
15 | 0.52 | Cc1nc(NS(=O)(=O)c2ccc(F)cc2)ccc1-c1cc2cnc(N[C@H]3CC[C@H](N(C)C)CC3)nc2n(C(C)C)c1=O [Compound 132, N-(5-(2-(((1r,4r)-4-(Dimethylamino)cyclohexyl)amino)-8-isopropyl-7-oxo-7,8-dihydropyrido[2,3-d]pyrimidin-6-yl)-6-methylpyridin-2-yl)-4-fluorobenzenesulfonamide]
16 | 0.62 | Cc1nc(NS(=O)(=O)c2ccccc2Cl)ccc1-c1cc2cnc(N[C@@H]3CNC[C@@H](F)C3)nc2n(C(C)C)c1=O [Compound 133, 2-Chloro-N-(5-(2-(((3S,5S)-5-fluoropiperidin-3-yl)amino)-8-isopropyl-7-oxo-7,8-dihydropyrido[2,3-d]pyrimidin-6-yl)-6-methylpyridin-2-yl)benzenesulfonamide]
17 | 0.19 | CC(C)n1c(=O)c(-c2ccc(NS(=O)(=O)C3CCCC3)c(F)c2)cc2cnc(N[C@H]3CC[C@H](N(C)C)CC3)nc21 [Compound 134, N-(4-(2-(((1r,4r)-4-(Dimethylamino)cyclohexyl)amino)-8-isopropyl-7-oxo-7,8-dihydropyrido[2,3-d]pyrimidin-6-yl)-2-fluorophenyl)cyclopentanesulfonamide hydrochloride]
18 | 0.43 | Cc1nc(NS(=O)(=O)c2ccccc2Cl)ccc1-c1cc2cnc(N[C@H]3CC[C@H](N(C)C)CC3)nc2n(C(C)C)c1=O [Compound 135, 2-Chloro-N-(5-(2-(((1r,4r)-4-(dimethylamino)cyclohexyl)amino)-8-isopropyl-7-oxo-7,8-dihydropyrido[2,3-d]pyrimidin-6-yl)-6-methylpyridin-2-yl)benzenesulfonamide]
19 | 0.29 | Cc1nc(NS(=O)(=O)c2ccccc2C#N)ccc1-c1cc2cnc(N[C@H]3CC[C@H](N(C)C)CC3)nc2n(C(C)C)c1=O [Compound 136, 2-Cyano-N-(5-(2-(((1r,4r)-4-(dimethylamino)cyclohexyl)amino)-8-isopropyl-7-oxo-7,8-dihydropyrido[2,3-d]pyrimidin-6-yl)-6-methylpyridin-2-yl)benzenesulfonamide]
20 | 0.48 | Cc1cccc(S(=O)(=O)Nc2ccc(-c3cc4cnc(N[C@H]5CC[C@H](N(C)C)CC5)nc4n(C(C)C)c3=O)c(C)n2)c1F [Compound 137, N-(5-(2-(((1r,4r)-4-(Dimethylamino)cyclohexyl)amino)-8-isopropyl-7-oxo-7,8-dihydropyrido[2,3-d]pyrimidin-6-yl)-6-methylpyridin-2-yl)-2-fluoro-3-methylbenzenesulfonamide]
21 | 0.19 | COCCN(C)[C@H]1CC[C@H](Nc2ncc3cc(-c4ccc(NS(=O)(=O)CCC(F)(F)F)c(F)c4)c(=O)n(C(C)C)c3n2)CC1 [Compound 138, 3,3,3-Trifluoro-N-(2-fluoro-4-(8-isopropyl-2-(((1r,4r)-4-((2-methoxyethyl)(methyl)amino)cyclohexyl)amino)-7-oxo-7,8-dihydropyrido[2,3-d]pyrimidin-6-yl)phenyl)propane-1-sulfonamide]
22 | 0.27 | CC(C)n1c(=O)c(-c2cc(F)c(NS(=O)(=O)Cc3cccnc3C(F)(F)F)c(F)c2F)cc2cnc(N[C@@H]3CNC[C@@H](F)C3)nc21 [Compound 139, N-(2,3,6-Trifluoro-4-(2-(((3S,5S)-5-fluoropiperidin-3-yl)amino)-8-isopropyl-7-oxo-7,8-dihydropyrido[2,3-d]pyrimidin-6-yl)phenyl)-1-(2-(trifluoromethyl)pyridin-3-yl)methanesulfonamide]
23 | 0.3 | Cc1nc(NS(=O)(=O)c2ccccc2F)ccc1-c1cc2cnc(N[C@H]3CC[C@H](N(C)C)CC3)nc2n(C(C)C)c1=O [Compound 140, N-(5-(2-(((1r,4r)-4-(Dimethylamino)cyclohexyl)amino)-8-isopropyl-7-oxo-7,8-dihydropyrido[2,3-d]pyrimidin-6-yl)-6-methylpyridin-2-yl)-2-fluorobenzenesulfonamide]
